The text below walks through data of patent publication US20070197522A1, “Dpp-iv inhibitors” (priority 2004, published 2007).

The target of the test is T1, DPP-IV (Homo sapiens, UniProt P27487).
T1 construct: Soluble human DPP-IV lacking the transmembrane anchor (Gly31-Pro766) was expressed in a recombinant YEAST-strain; Pre-Pro-alpha-mating factor leader (secretion fusion) (N, cleaved yes); made in house
Nature of the test: Inhibition of DPP-IV peptidase activity, continuous fluorimetric assay (Gly-Pro-AMC cleavage). In kind it is biochemical, human and porcine. On the procedure:
Inhibition of DPP-IV peptidase activity was monitored with a continuous fluorimetric assay. This assay is based on the cleavage of the substrate Gly-Pro-AMC (Bachem) by DPP-IV, releasing free AMC. The assay is carried out in 96-well microtiterplates. In a total volume of 100 μL, compounds are preincubated with 50 pM DPP-IV employing a buffer containing 10 mM Hepes, 150 mM NaCl, 0.005% Tween 20 (pH 7.4). […] The final concentration of DMSO is 1%. The inhibitory potential of the compounds were determined.
Soluble human DPP-IV lacking the transmembrane anchor (Gly31-Pro766) was expressed in a recombinant YEAST-strain as Pre-Pro-alpha-mating fusion. The secreted product (rhuDPP-IV-Gly31-Pro766) was purified from fermentation broth (>90% purity).

[1] abbreviates: inhibition of DPP-IV peptidase activity, 50 pM DPP-IV, 16 μM Gly-Pro-AMC, pH 7.4, 25° C., values grouped in 3 classes, read-out: IC50.

SMILES strings stand for the structures. Like-named read-outs stand apart in the source and are kept apart here.

T1 sequence (P27487 31-766): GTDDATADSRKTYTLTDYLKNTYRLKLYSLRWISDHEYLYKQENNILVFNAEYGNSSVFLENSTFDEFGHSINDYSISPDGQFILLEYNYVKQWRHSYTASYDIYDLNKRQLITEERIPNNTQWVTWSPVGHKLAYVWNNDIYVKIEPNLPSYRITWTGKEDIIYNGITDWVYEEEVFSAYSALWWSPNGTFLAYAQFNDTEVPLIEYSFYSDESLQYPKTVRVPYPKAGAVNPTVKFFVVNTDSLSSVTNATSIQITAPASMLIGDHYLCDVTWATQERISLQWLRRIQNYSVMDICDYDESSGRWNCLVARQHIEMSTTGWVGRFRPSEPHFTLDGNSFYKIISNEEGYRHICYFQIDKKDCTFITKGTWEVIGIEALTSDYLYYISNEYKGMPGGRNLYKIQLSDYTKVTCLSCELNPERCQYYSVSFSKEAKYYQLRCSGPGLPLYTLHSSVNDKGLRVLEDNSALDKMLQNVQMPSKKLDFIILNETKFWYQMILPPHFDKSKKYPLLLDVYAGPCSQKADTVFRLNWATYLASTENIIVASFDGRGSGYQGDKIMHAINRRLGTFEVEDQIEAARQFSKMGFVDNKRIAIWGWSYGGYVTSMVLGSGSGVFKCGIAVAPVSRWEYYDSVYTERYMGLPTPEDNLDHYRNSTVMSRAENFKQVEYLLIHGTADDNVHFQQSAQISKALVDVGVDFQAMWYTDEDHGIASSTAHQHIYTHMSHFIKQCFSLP

As to `C[C@@H](CNC(=O)C[C@H](N)Cc1ccccc1F)c1ccccc1` [Example 94], the IC50 (commonly the concentration that inhibits the measured activity by half) under setting [1] lay in the range of 0.101 to 1 µM.

As for `N[C@@H](CC(=O)NCCc1ccc(Cl)cc1)Cc1ccccc1F` [Example 95], the IC50 under setting [1] is 0.101 to 1 µM.

In the case of `N[C@@H](CC(=O)NCCc1ccccc1Cl)Cc1ccccc1F` [Example 96], the IC50 under setting [1] is 0.101 to 1 µM.

Consider `COc1ccccc1CCNC(=O)C[C@H](N)Cc1ccccc1F` [Example 97], for which the IC50 under setting [1] fell in the range of 1 to 2 µM.

Turning to `COc1ccc(CCNC(=O)C[C@H](N)Cc2ccccc2F)cc1` [Example 98], the IC50 under setting [1] lay within 1 to 2 µM.

As for `COc1ccc([C@@H](C)NC(=O)C[C@H](N)Cc2ccccc2F)cc1` [Example 99], the IC50 under setting [1] lay within 1 to 2 µM.

`COc1cccc(C(C)NC(=O)CC(N)Cc2ccccc2F)c1` (centres unmarked) [Example 102]: the half-inhibitory concentration (IC50) under setting [1] was 1 to 2 µM.

With `N[C@@H](CC(=O)NCCc1ccc(S(N)(=O)=O)cc1)Cc1ccccc1F` [Example 104], the IC50 under setting [1] lay within 0.101 to 1 µM.

As to `CN(C(=O)C[C@H](N)Cc1ccccc1F)C(c1ccccc1)c1ccccc1` [Example 105], the IC50 under setting [1] fell in the range of 0.101 to 1 µM.

For `N[C@@H](CC(=O)NCCc1ccc(F)cc1)Cc1ccccc1F` [Example 110], the IC50 under setting [1] fell in the range of 1 to 2 µM.

In the case of `NC(CC(=O)NCCc1cccc(F)c1)Cc1ccccc1F` (centres unmarked) [Example 111], the IC50 under setting [1] was 1 to 2 µM.

On to `N[C@@H](CC(=O)NCCc1cccc(Cl)c1)Cc1ccccc1F` [Example 112], for which the IC50 under setting [1] is 0.101 to 1 µM.

Consider `N[C@@H](CC(=O)NCCc1ccccc1F)Cc1ccccc1F` [Example 113], for which the IC50 under setting [1] was in the range of 0.101 to 1 µM.

For `N[C@@H](CC(=O)NCCc1c(F)cccc1Cl)Cc1ccccc1F` [Example 114], under setting [1], the IC50 lay in the range of 0.101 to 1 µM.

As to `Cc1ccc(CNC(=O)C[C@H](N)Cc2ccccc2F)cc1` [Example 115], under setting [1], the IC50 lay in the range of 0.101 to 1 µM.

For the compound `N[C@@H](CC(=O)NCc1cccc2cnccc12)Cc1ccccc1F` [Example 116], under setting [1], the IC50 is 1 to 2 µM.

For `N[C@@H](CC(=O)NCc1ccccc1F)Cc1ccccc1F` [Example 117], under setting [1], the IC50 was in the range of 0.101 to 1 µM.

In the case of `N[C@@H](CC(=O)NCc1cccc(F)c1)Cc1ccccc1F` [Example 118], under setting [1], the IC50 is 0.101 to 1 µM.

On to `NC(CC(=O)NC1CCc2ccccc21)Cc1ccccc1F` (centres unmarked) [Example 120], for which the IC50 under setting [1] fell in the range of 1 to 2 µM.

Consider `CN(Cc1ccccc1)C(=O)C[C@H](N)Cc1ccccc1F` [Example 121], for which the IC50 under setting [1] is 0.101 to 1 µM.

Take `CN(Cc1cccnc1)C(=O)C[C@H](N)Cc1ccccc1F` [Example 122]: under setting [1], the IC50 is 0.101 to 1 µM.

Regarding `CN(Cc1ccccc1Cl)C(=O)C[C@H](N)Cc1ccccc1F` [Example 123], the IC50 under setting [1] is 0.101 to 1 µM.

For the compound `CN(Cc1cccc(C(F)(F)F)c1)C(=O)C[C@H](N)Cc1ccccc1F` [Example 124], under setting [1], the IC50 was 0.101 to 1 µM.

On to `CN(Cc1ccc(F)cc1)C(=O)C[C@H](N)Cc1ccccc1F` [Example 125], for which the IC50 under setting [1] is 0.101 to 1 µM.

In the case of `COc1ccc(CN(C)C(=O)C[C@H](N)Cc2ccccc2F)cc1` [Example 126], under setting [1], the concentration for half-maximal inhibition (IC50) fell in the range of 0.101 to 1 µM.

Turning to `CN1CCN(c2ccc(CNC(=O)C[C@H](N)Cc3ccccc3F)cc2)CC1` [Example 127], under setting [1], the IC50 fell in the range of 0.101 to 1 µM.

For `N#Cc1ccc(CNC(=O)C[C@H](N)Cc2ccccc2F)cc1` [Example 129], the IC50 under setting [1] was 0.101 to 1 µM.

`CCOc1ccccc1CCNC(=O)C[C@H](N)Cc1ccccc1F` [Example 130]: the IC50 under setting [1] was in the range of 0.101 to 1 µM.

`N[C@@H](CC(=O)NCc1cccc2ncccc12)Cc1ccccc1F` [Example 138]: under setting [1], the IC50 was in the range of 0.101 to 1 µM.

With `N[C@@H](CC(=O)NCc1cccc(OC(F)F)c1)Cc1ccccc1F` [Example 139], the IC50 under setting [1] lay in the range of 0.101 to 1 µM.

As for `Cc1nn(-c2ccccc2)c(C)c1CNC(=O)C[C@H](N)Cc1ccccc1F` [Example 140], the IC50 under setting [1] lay within 0.101 to 1 µM.

Turning to `CS(=O)(=O)c1ccc(CNC(=O)C[C@H](N)Cc2ccccc2F)cc1` [Example 141], the IC50 under setting [1] was 0.101 to 1 µM.

Turning to `COc1ccc(Oc2cccc(F)c2CNC(=O)C[C@H](N)Cc2ccccc2F)cc1` [Example 142], under setting [1], the IC50 lay in the range of 0.101 to 1 µM.

On to `CN(C)CCOc1ccc(CNC(=O)C[C@H](N)Cc2ccccc2F)cc1` [Example 143], for which the IC50 under setting [1] was in the range of 1 to 2 µM.

On to `NC(CC(=O)N(Cc1ccccc1F)C1CC1)Cc1ccccc1F` (centres unmarked) [Example 144], for which, under setting [1], the IC50 is 0.101 to 1 µM.

With `N[C@@H](CC(=O)N(Cc1cccnc1)C1CC1)Cc1ccccc1F` [Example 145], the IC50 under setting [1] was 0.101 to 1 µM.

Consider `Cn1c(CNC(=O)C[C@H](N)Cc2ccccc2F)nc2ccccc21` [Example 146], for which the IC50 under setting [1] fell in the range of 0.101 to 1 µM.

Regarding `N[C@@H](CC(=O)NCc1ccc(S(N)(=O)=O)cc1)Cc1ccccc1F` [Example 147], the IC50 under setting [1] lay within 0.101 to 1 µM.

On to `N[C@@H](CC(=O)NCCNC(=O)c1ccccn1)Cc1ccccc1F` [Example 148], for which the IC50 under setting [1] fell in the range of 0.101 to 1 µM.

Regarding `Cc1onc(-c2ccccc2)c1CNC(=O)C[C@H](N)Cc1ccccc1F` [Example 149], under setting [1], the IC50 fell in the range of 0.101 to 1 µM.

`Cc1ccccc1-n1nc(C)c(CNC(=O)C[C@H](N)Cc2ccccc2F)c1C` [Example 151]: the IC50 under setting [1] was 0.101 to 1 µM.

For `N[C@@H](CC(=O)NCc1cc(-c2ccc(Cl)cc2)no1)Cc1ccccc1F` [Example 152], the half-inhibitory concentration (IC50) under setting [1] fell in the range of 0.101 to 1 µM.

`N[C@@H](CC(=O)NCc1ccc(OC(F)F)cc1)Cc1ccccc1F` [Example 153]: the IC50 under setting [1] lay in the range of 1 to 2 µM.

For `N[C@@H](CC(=O)NCc1ccccc1N1CCCCC1)Cc1ccccc1F` [Example 154], under setting [1], the IC50 lay in the range of 0.101 to 1 µM.

`N[C@@H](CC(=O)N(CCN1CCOCC1)Cc1cccnc1)Cc1ccccc1F` [Example 155]: the IC50 under setting [1] lay within 0.101 to 1 µM.

Regarding `N[C@@H](CC(=O)NCC(c1ccccc1Cl)N1CCOCC1)Cc1ccccc1F` (some centres unmarked) [Example 156], the IC50 under setting [1] was in the range of 0.101 to 1 µM.

For `N[C@@H](CC(=O)NCC(c1cccc(Cl)c1)N1CCOCC1)Cc1ccccc1F` (some centres unmarked) [Example 157], the IC50 under setting [1] lay in the range of 0.101 to 1 µM.

On to `NC(CC(=O)NCC(c1ccc(Cl)cc1)N1CCOCC1)Cc1ccccc1F` (centres unmarked) [Example 158], for which the IC50 under setting [1] is 0.101 to 1 µM.

On to `CN1CCN(CC(NC(=O)C[C@H](N)Cc2ccccc2F)c2ccccc2)CC1` (some centres unmarked) [Example 159], for which, under setting [1], the IC50 is 0.101 to 1 µM.

For the compound `CN1CCN(CC(c2ccccc2)N(C)C(=O)C[C@H](N)Cc2ccccc2F)CC1` (some centres unmarked) [Example 160], the IC50 under setting [1] was in the range of 1 to 2 µM.

Regarding `N[C@@H](CC(=O)NCc1n[nH]c2ccc(Cl)cc12)Cc1ccccc1F` [Example 161], the IC50 (IC50) was in the range of 0.101 to 1 µM.

In the case of `N[C@@H](CC(=O)NCc1cnn(-c2ccccc2)c1)Cc1ccccc1F` [Example 163], the IC50 under setting [1] was in the range of 0.101 to 1 µM.

As to `N[C@@H](CC(=O)NCc1cc(Cl)ccc1-n1cncn1)Cc1ccccc1F` [Example 164], the IC50 under setting [1] was in the range of 0.101 to 1 µM.

`NC(CC(=O)NCC(c1ccccc1)N1CCOCC1)Cc1ccccc1F` (centres unmarked) [Example 167]: the IC50 under setting [1] lay within 0.101 to 1 µM.

`N[C@@H](CC(=O)NCc1cccc(-n2cccn2)c1)Cc1ccccc1F` [Example 171]: the IC50 under setting [1] is 0.101 to 1 µM.

For the compound `N[C@@H](CC(=O)NCC(c1cccc(Cl)c1)N1CCCC1)Cc1ccccc1F` (some centres unmarked) [Example 172], the IC50 under setting [1] was 0.101 to 1 µM.

Turning to `N[C@@H](CC(=O)N[C@@H](CN1CCCCC1)c1ccccc1)Cc1ccccc1F` [Example 173], under setting [1], the IC50 was in the range of 0.101 to 1 µM.

`CC(NC(=O)C[C@H](N)Cc1ccccc1F)c1ccc(-n2ccnc2)cc1` (some centres unmarked) [Example 174]: under setting [1], the IC50 fell in the range of 0.101 to 1 µM.

Turning to `CN(Cc1cn2ccccc2n1)C(=O)C[C@H](N)Cc1ccccc1F` [Example 175], the IC50 under setting [1] lay within 1 to 2 µM.

In the case of `CN(CC(c1ccccc1)N1CCOCC1)C(=O)C[C@H](N)Cc1ccccc1F` (some centres unmarked) [Example 177], the IC50 under setting [1] was < 0.1 µM.

On to `CN(CC(c1ccccc1Cl)N1CCCC1)C(=O)C[C@H](N)Cc1ccccc1F` (some centres unmarked) [Example 178], for which the IC50 under setting [1] was < 0.1 µM.

`CN(C(=O)C[C@H](N)Cc1ccccc1F)[C@@H](CN1CCCC1)c1ccccc1` [Example 179, (R)-3-Amino-4-(2-fluoro-phenyl)-N-methyl-N-(1-phenyl-2-pyrrolidin-1-yl-ethyl)-butyramide Formic Acid]: the IC50 (IC50, inhibition of DPP-IV peptidase activity, 50 pM DPP-IV, 16 μM Gly-Pro-AMC, pH 7.4, 25° C., values grouped in 3 classes) fell in the range of 0.101 to 1 µM.

Turning to `N[C@H](Cc1ccccc1F)CS(=O)(=O)NCc1ccc(C(F)(F)F)nc1` [Example 191, (R)-2-Amino-3-(2-fluoro-phenyl)-Propane-1-sulphonic acid (6-trifluoromethyl-pyridin-3-ylmethyl)-amide], the half-maximal inhibitory concentration (IC50) under setting [1] was 0.101 to 1 µM.

In the case of `N[C@H](Cc1ccccc1F)CS(=O)(=O)NCc1cccc(C(F)(F)F)c1` [Example 192, (R)-2-Amino-3-(2-fluoro-phenyl)-propane-1-sulphonic acid 3-trifluoromethyl-benzyl-amide], the IC50 under setting [1] is 0.101 to 1 µM.

On to `CN(Cc1cccc(C(F)(F)F)c1)S(=O)(=O)C[C@H](N)Cc1ccccc1F` [Example 193, (R)-2-Amino-3-(2-fluoro-phenyl)-propane-1-sulphonic acid methyl-(3-trifluoromethyl-benzyl)-amide], for which the IC50 under setting [1] lay in the range of 0.101 to 1 µM.
